Columns and labels:
[1] = serum drug level after single oral dose in woodchucks; assay type: in vivo; conditions: woodchuck, single oral dose of 100 mg/kg
Description: (§1) Twenty adult chronically infected woodchucks were stratified by age, sex, body weight, serum viral load, and serum GGT activity into four treatment groups of five animals each. Drug was administered orally at 100 mg/kg (in sterile water), chosen after an initial dose finding trial. […] The subunit vaccine consisted of 22-nm WHsAg particles, purified by zonal ultracentrifugation from serum of WHV7P1-infected WHV carriers (24), inactivated with formalin, and adsorbed onto alum. Prior to alum adsorption, vaccine was tested in naïve, WHV-susceptible animals and no residual virus was detected. Purified WHsAg was not pretreated with enzymes that remove preS sequences.

glucosidase I = molecular target: T1, glucosidase I (Homo sapiens, UniProt Q13724); conditions: cited from earlier work
T1 sequence (Q13724 1-837): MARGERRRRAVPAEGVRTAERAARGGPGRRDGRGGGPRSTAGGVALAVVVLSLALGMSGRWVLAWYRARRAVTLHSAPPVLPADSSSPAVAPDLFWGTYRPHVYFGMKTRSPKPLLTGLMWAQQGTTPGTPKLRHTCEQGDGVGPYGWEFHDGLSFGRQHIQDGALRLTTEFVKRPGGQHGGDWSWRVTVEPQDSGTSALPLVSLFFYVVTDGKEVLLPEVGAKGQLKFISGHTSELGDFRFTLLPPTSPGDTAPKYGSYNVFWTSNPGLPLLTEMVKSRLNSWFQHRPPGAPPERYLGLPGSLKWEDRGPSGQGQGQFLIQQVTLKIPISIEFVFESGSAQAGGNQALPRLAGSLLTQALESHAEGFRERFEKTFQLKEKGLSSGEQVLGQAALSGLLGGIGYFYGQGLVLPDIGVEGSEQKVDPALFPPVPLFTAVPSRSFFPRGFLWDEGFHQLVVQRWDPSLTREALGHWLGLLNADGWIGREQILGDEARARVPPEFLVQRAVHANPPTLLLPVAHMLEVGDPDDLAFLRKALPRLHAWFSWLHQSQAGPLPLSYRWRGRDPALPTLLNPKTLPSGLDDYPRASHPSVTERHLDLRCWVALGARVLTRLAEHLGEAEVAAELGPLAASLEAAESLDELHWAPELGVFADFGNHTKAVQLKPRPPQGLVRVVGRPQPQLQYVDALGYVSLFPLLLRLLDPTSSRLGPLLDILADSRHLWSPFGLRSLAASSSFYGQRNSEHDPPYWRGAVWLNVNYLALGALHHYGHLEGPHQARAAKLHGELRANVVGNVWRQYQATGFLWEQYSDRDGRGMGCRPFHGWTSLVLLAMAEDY

[2] = system: WHV surface antigen (WHsAg); test: serum WHsAg enzyme immunoassay in chronic WHV carrier woodchucks; assay type: in vivo, woodchuck; conditions: for WHsAg, Av(range): serum
Description: All experimental procedures involving woodchucks were performed under protocols approved by the Cornell University Institutional Animal Care and Use Committee. Woodchucks were born to WHV-negative females in environmentally controlled laboratory animal facilities and inoculated at 3 days of age with 5 million infectious doses of a standardized WHV inoculum (23). Woodchucks were selected as chronic WHV carriers based on persistent detection of WHV surface antigen (WHsAg) and WHV DNA in serum prior to treatments. All animals were free of HCC at the beginning of the study as determined by hepatic ultrasound examination and normal serum activity of γ-glutamyl-transferase (GGT).
as §1, with “sequences. […]” for “sequences.”
Serum WHV DNA was measured quantitatively by dot blot hybridization (assay sensitivity, ≧1.0×10^7 WHV genome equivalents per ml [WHVge/ml]) (25). Serum WHsAg, antibodies to WHV core antigen (anti-WHc), and WHV surface antigen (anti-WHs) were determined with WHV-specific enzyme immunoassays (26). […]
Woodchucks chronically infected with WHV experienced significant immunological responses to envelope proteins following immunization with WHsAg-containing vaccines, especially in the context of low viral and antigen loads following treatment with an effective antiviral agent, 1-(2-fluoro-5-methyl-beta-L-arabinofuranosyl)-uracil (L-FMAU) (29, 35). […] Animals were scored as positive if cells proliferated above the cut-off value of 2: 3.1. […]

SMILES: CCCC(=O)O[C@H]1CN2CC[C@H](O)[C@@H]2[C@@H](O)[C@H]1O [BuCas, 6-O-butanoyl castanospermine]
- Cmax, range [1]: 5000 to 12100 ng/mL
- average observed Cmax [1]: 7700 ng/mL
- potency as inhibitor of glucosidase I relative to deoxynojirimycin (glucosidase I): more potent inhibitors of glucosidase I than deoxynojirimycin
- antigenemia, in words ([2]; chronic WHV carrier woodchucks, all times tested): not altered significantly
- WHsAg, Av(range) ([2]; week 0 (baseline)): .38(.28-.43) optical density units
- WHsAg, Av(range) ([2]; week 10): .42(33-.52) optical density units
